According to patent US20080206347A1, “Pharmaceutical Formulations Comprising Active Pharmaceutical Principles Adsorbed on Titanium Dioxide Nanoparticles” (FLAMMA S.P.A., priority 2005, published 2008):
Several values for one entry are separate records, joined by “and”; a condition that tells them apart may be missing. Equal values may be shown once. Read-outs that look alike come from different tables or passages of the source.

How the values were obtained:
[1] = Method: (§1) A NMR-based method was developed since alendronate lacks the chromophoric group of risedronate. The NMR experiments were carried out in H2O instead of D2O (or other deuterated solvents) simply using the aqueous solutions obtained after removal of TiO2 by centrifugation without concentration or further treatment. Only a small amount of C6D6 in a sealed capillary tube (reusable) inserted into the NMR tube was required to achieve the field lock. […] To determine the concentration of sodium alendronate in aqueous solutions, a known amount of an internal standard was added before each NMR measurements, namely 1,3,5-triaza-7-phospha-adamantane, a water-soluble phosphine.
Sodium Alendronate trihydrated was adsorbed on TiO2 as described above. After centrifugation, the recovered solid was dried at 40° C./0.1 mbar for 6 h. A suspension of this solid in 50 ml of aqueous HCl (pH 1.0) or NaOH (pH 9.0) was vigorously stirred at the stated temperature in a nitrogen atmosphere. The pH of the basic solution was constantly monitored and maintained at the initial level by addition of 0.05 M NaOH.

[2] = Adsorption of drug on TiO2 nanoparticles; format: physicochemical
Method: To a stirred solution of Sodium Risedronate (625 mg) in deionized water (100 ml) increasing amounts of nanocrystalline TiO2 were added (ca. 20 nm nanoparticle size). […] This limit probably corresponds to a total surface coverage of the nanoparticles.
190 mg of Sodium Risedronate were adsorbed at 25° C. on 3.00 g of TiO2 nanoparticles having an average diameter of 20-25 nm.
(§2) To an aqueous solution containing 625 mg of Sodium Risedronate in 100 ml of deionized water 3.00 g of TiO2 was added. The suspension was stirred for 72 h at room temperature and then centrifuged at 4000 rpm for 10 min. The solid was suspended twice in a pH 1 HCl solution, stirred for 20 min and centrifuged. The solid was finally dried at 40° C. under vacuum.
as §1
TiO2 (25 nm, 1.00 g) was added to a solution of Sodium Alendronate trihydrated (207 mg, 0.64 mmol) in H2O (50 ml) and the resulting suspension (pH 4.5) was vigorously stirred in the dark at 25° C. for 48 h, then centrifuged (4,000 rpm, 5 min). The cloudy supernatant was recovered, treated with solid NaCl (ca. 3 g), kept at room temperature for 2 h, and centrifuged (4,000 rpm, 5 min). To the resulting solution was added 1,3,5-triaza-7-phospha-adamantane and the concentration of residual sodium alendronate was estimated by ^31P-NMR as described above.

[3] = in vivo; cited from earlier work
[4] = Desorption of Sodium Risedronate from TiO2 in aqueous solution at different pH; format: physicochemical; details: for amount released, % of the initial concentration on TiO2: pH=8, 25° C.
Method: Desorption of Sodium Risedronate from TiO2 at 25° C. was studied in aqueous solution at different pH values.
The desorption as function of time of Sodium Risedronate from TiO2 was studied in aqueous solution at pH 9 and at 36° C.
as §2
Nine separate 30 mg portions of TiO2 adsorbed with Sodium Risedronate were suspended in 10 ml of pH 9 NaOH solutions and left stirring for different times in the range 1-120 min. During drug desorption the pH of the suspension was kept at the original value by small addition of NaOH solution. In all cases the concentration of desorbed drug was corrected for volume changes.

[5] = 250 mg of TiO2 carrying 16 mg of drug
[6] = 1.00 g TiO2 (25 nm), 24 h stirring, 25° C.

Row | SMILES | release to the intestine [1, 5] | Desorption ([1]; pH 1.0, 2 h stirring at 25° C.) | Desorption ([1]; pH 9.0, 30 min stirring at 25° C.) | Desorption ([1]; pH 9.0, 2 h stirring at 25° C.) | Desorption ([1]; pH 9.0, 6 h stirring at 37° C.) | amount adsorbed on TiO2 ([2]; 1.00 g TiO2 (25 nm), 207 mg in 50 ml H2O, 48 h stirring, 25° C.) | amount adsorbed on TiO2 [2, 6] | amount adsorbed, % of the initial amount [2, 6] | amount adsorbed, % of the initial amount ([2]; 1.00 g TiO2 (25 nm), 48 h stirring, 25° C.) | oral bioavailability [3] | amount of drug released in the intestine [4, 5] | release in the gastroesophageal region [4, 5] | adsorbed drug desorbed ([4]; pH 9, 36° C., after 1 minute) | amount of drug released ([4]; pH 9, 36° C., in the next 60 min) | amount of drug released ([4]; pH 9, 36° C., longer times (up to 120 min), constant) | amount released, % of the initial concentration on TiO2 ([4]; after 30 min) | amount released, % of the initial concentration on TiO2 ([4]; after 2 hours) | amount of drug which can be adsorbed on the surface of the nanocrystalline substrate ([2]; 625 mg in 100 ml deionized water, increasing amounts of TiO2 ca. 20 nm, limit value) | amount adsorbed on TiO2 ([2]; on 3.00 g of TiO2 nanoparticles (20-25 nm), 25° C./room temperature, from 625 mg)
1 | NCCCC(O)(P(=O)(O)O)P(=O)(O)O [Sodium Alendronate] | 4 mg | not detected | 8% | 12% | 22% and 16-22% | 71 mg | 66 mg | 32% | 34% and 26-34% | – | – | – | – | – | – | – | – | – | –
2 | O=P(O)(O)C(O)(Cc1cccnc1)P(=O)(O)O [Sodium Risedronate] | – | – | – | – | – | – | – | – | – | 0.63% | 6 to 9 mg | negligible release | 25% | 36% | 36% | ~35% | 35% | 31% | 190 mg
